# Data as given in patent US10105403B2, “Methods of treating iron deficiency to prevent iron-deficiency anemia by administration of Lactobacillus plantarum” (Probi AB, priority 2005, dated 2018).
# System: Caco-2 cells
# Experiment: Cellular 55Fe uptake and transfer across Caco-2 monolayers with bacterial suspensions
# Assay type: cell-based
# Method: Caco-2 cells were obtained from the American Type Culture Collection (Rockville, Md.) at passage 17 and used for experiments at passages 20-35. Stock cultures were maintained in Dulbecco's modified […] medium (DMEM) supplemented with 20% (v/v) fetal calf serum (FSC), […] penicillin G, and 100 mg/L streptomycin at 37° C. in a huminified atmosphere of 95% air-5% CO2. The growth medium was changed every second to third day. Cells were split at ˜80% confluence using 0.5 g/L trypsin with 0.5 mmol/L EDTA in Dulbecco's phosphate buffered saline (PBS). […]
# Lactobacillus plantarum 299v (DSM9843), (5), Lactobacillus plantarum 299, (1), Lactobacillus plantarum Heal 9 (DSM 15312), (2), Lactobacillus plantarum Heal 19 (DSM15313), (4), Lactobacillus plantarum 299v mutant (AMJ1277), (3) and Lactobacillus reuteri, (6) were cultured in MRS broth at a rotary shaker (37° C., 200 rpm). […] The volume of cell culture corresponding to a certain cell-number was calculated from a predetermined standard curve. […]
# Fresh supplemented DMEM was provided to the cells 1 day prior to the uptake and transfer assays. […] After 2 h incubation, the cells were washed four times with ice-cold wash buffer (150 mmol/L NaCl, 10 mmol/L HEPES, 1 mmol/L EDTA, pH7) and homogenized in 0.5M NaOH. ^55Fe transferred to the basolateral chamber or associated with the Caco-2 lysates was measured by liquid scintillation counting. […]
substance,measurement,setting,value
Lactobacillus reuteri,Transport %,"FeCl3 10 μmol/l in HBSS/HEPES, 55Fe traced, 2 h incubation, 6.7×10^7 cells/ml (Lactobacillus reuteri 3.35×10^7 cells/ml), control without bacteria 0.06",0.11%
same,Effect on Fe transport (in words),"FeCl3 10 μmol/l, Caco-2 monolayers, compared to neat Fe solution","an increase of the transport is seen, but not comparable with the different Lactobacillus plantarum strains"
